Measurements published in patent publication US7625875B2 (priority 2002, dated 2009).
Where two headings read alike, the source gives them in different places.

Assays:
HSV-1 = assay: Antiviral activity, HSV-1 (HFF); assay type: cell-based; conditions: Human alphaherpesvirus 1
[1] = test system: BVDV New York-1 (NY-1) strain; assay: MDBK cells persistently infected with BVDV strain New York-1, virus titer; assay type: cell-based, bovine viral diarrhea virus; conditions: 8 μM alone, after one passage
[2] = test system: A549, Human lung carcinoma cells; assay: Cytotoxicity, A549; assay type: cell-based; conditions: Adenovirus type 1 line
VEE = assay: microbe, parasite or virus in culture; assay type: cell-based; conditions: Venezuelan equine encephalitis virus, Vero
HepG2 cells [3] = assay: Cellular DNA synthesis, [3H]-thymidine incorporation; conditions: read-out: CC50 DNA ([3H]Thymidine); 50% reduction of thymidine incorporation into cellular DNA
BVDV (strain NADL) = assay: BVDV cell protection assay (CPA); assay type: cell-based; conditions: Bovine viral diarrhea virus isolates and strains, MOI of BVDV 0.04
[4] = test system: BVDV (strain I-N-dIns), noncytopathic; assay type: cell-based, bovine viral diarrhea virus
HepG2 cells [5] = assay: Mitochondria toxicity assay, lactic acid production, HepG2; conditions: for L-Lactate (% of Control): 4 days
Influenza A/H1N1 = assay: Antiviral activity, Influenza A/H1N1 (MDCK); assay type: cell-based; conditions: Influenza A virus
HepG2 cells [6] = assay: Cellular RNA synthesis, [3H]-uridine incorporation; conditions: read-out: CC50 RNA ([3H]Uridine); 50% reduction of uridine incorporation into cellular RNA
[7] = Cytotoxicity (cell proliferation) assay, HepG2; conditions: human, HepG2 cells
[8] = test system: HepG2 human hepatoma cell line; assay: Cytotoxicity (cell proliferation) assay, HepG2; conditions: cells grown on collagen coated plates for 4 or 10 d
[9] = test system: MA-104, Rhesus monkey kidney cells; assay: Cytotoxicity, MA-104; conditions: Parainfluenza type 3 line
Influenza A/H3N2 = assay: Antiviral activity, Influenza A/H3N2 (MDCK); assay type: cell-based; conditions: Influenza A virus
BVDV = assay type: cell-based, bovine viral diarrhea virus; conditions: for EC4 log: MDBK
West Nile Virus = assay: microbe, parasite or virus in culture; assay type: cell-based; conditions: BHK
[10] = test system: MT-4 human T-lymphocyte cells; conditions: human
in vitro = conditions: hamster
[11] = test system: HeLa, human cervical adenocarcinoma cells; assay: Cytotoxicity, HeLa-Ohio; assay type: cell-based; conditions: Rhinovirus type 14 line
[12] = Stability in human plasma; conditions: 37° C.
[13] = test system: KB, human nasopharyngeal carcinoma; assay: Cytotoxicity, KB; assay type: cell-based
Punta Toro A = assay: organism not typed; assay type: cell-based; conditions: LLC-MK2
MCMV = assay: Antiviral activity, MCMV (MEF); assay type: cell-based
Polio Virus Sb-1 = assay: organism not typed; assay type: cell-based; conditions: Vero
Influenza B = assay: Antiviral activity, Influenza B (MDCK); assay type: cell-based; conditions: Influenza B virus
CVB-2 = assay: organism not typed; assay type: cell-based, Coxsackie B-2 virus; conditions: read-out: EC50 CVB-2
[14] = test system: MEF mouse embryo fibroblasts; assay: Cytotoxicity assay, MEF; conditions: MCMV (MEF) line
Adenovirus type 1 = assay: Antiviral activity, Adenovirus type 1 (A549); assay type: cell-based; conditions: Human mastadenovirus C
[15] = test system: human cytidine/deoxycytidine deaminase enzymes; conditions: 37° C.
Huh7 cells = assay: Mitochondria toxicity assay, lactic acid production, Huh7; conditions: 4 days
DENV-2 = assay: microbe, parasite or virus in culture; assay type: cell-based; conditions: Dengue virus, DENV2, read-out: composite EC50 range
VZV = assay: Antiviral activity, VZV (HFF); assay type: cell-based; conditions: Human alphaherpesvirus 3
Sb-1 = assay: organism not typed; assay type: cell-based, Sabin type 1 poliomyelitis virus
Parainfluenza type 3 = assay: Antiviral activity, Parainfluenza type 3 (MA-104); assay type: cell-based; conditions: MA104
REO-1 = assay: microbe, parasite or virus in culture; assay type: cell-based, double-stranded RNA Reovirus; conditions: Reovirus sp., read-out: REO
BVDV RNA = assay: Intracellular BVDV RNA by Real Time RT-PCR in de novo-infected MDBK cells; assay type: cell-based, bovine viral diarrhea virus
HepG2 cells [16] = assay: Mitochondrial DNA content; assay type: cell-based, human
Procedure: To assess the potential of mCyd to produce mitochondrial toxicity, several in vitro studies were conducted using the human hepatoma cell lines HepG2 or Huh7.
The significance of this finding is unclear, particularly since mCyd is unlikely to attain a plasma concentration of 50 μM in the clinic. For comparison, lactic acid production increases by 100% over control cells in cells treated with 10 μM FIAU (Cui L, Yoon, et al. J. Clin. Invest. 1995; 95:555-563).

With CC1(O)C(O)C(CO)OC1n1ccc(N)nc1=O (centres unmarked) [mCyd, 4-Amino-1-(3,4-dihydroxy-5-hydroxymethyl-3-methyl-tetrahydro-furan-2-yl)-1H-pyrimidine-2-one] the EC50 (HSV-1) was over 100 µg/mL, the “reduction of viral titers” value [1] was “approximately 3.5 log10” and the CC50 [2] was over 200 µM. For the same compound, the EC50 (VEE) was 1.3 to 45 µM, the CC50 (HepG2 cells [3]) was 112 ± 34.5 µM and the EC50 (BVDV (strain NADL)) was 0.5 µM. The “reduction of BVDV titer” value ([4]; 4 μM, one cell passage (3 days)) was “approximately 3 log10”, the “reduction of virus production” value ([4]; 8 μM) was 6.2 log10 and the virus production ([4]; 16 μM, within two cell passages, from more than 6 logs of virus per ml) was “undetectable levels”. The “L-Lactate (% of Control)” value (HepG2 cells [5]; 10 μM) was 98.6 ± 7.3 % of Control, the “increase in lactic acid production” value (HepG2 cells [5]; 50 μM) was 38% and the “L-Lactate (% of Control)” value (HepG2 cells [5]; 50 μM) was 138.0 ± 8.9 % of Control. For the same compound, the EC50 (Influenza A/H1N1) was over 200 µM, the CC50 (HepG2 cells [6]) was 186 ± 28.2 µM and the CC50 [7] was 200 µM. The CC50 [8] was over 200 µM, the CC50 [9] was over 200 µM and the EC50 (Influenza A/H3N2) was over 20 µM. For the same compound, the EC4 log (BVDV; BVDV I-N-dIns ncp (recombinant)) was 7.14 μM, the EC4 log (BVDV; BVDV I-NADL cp (recombinant)) was 8.22 μM and the “suppression of de novo BVDV production” value (BVDV; subcytotoxic concentrations (circa 20 μM)) was “up to 6 logs”. It also gave an EC50 (West Nile Virus) of 63 to 97 µM, a CC50 [10] of 34 µM and a CC50 (in vitro) of over 100 µM. The CC50 [11] was 20->100 μg/mL, the “in vitro stability, deamination to mUrd” value [12] was “remained essentially unchanged” and the CC50 ([13]; Rhinovirus type 2 line, read-out: CC50) was over 200 µM. For the same compound, the CC50 ([13]; Rhinovirus type 5 line) was 20 to 30 µg/mL, the EC50 (Punta Toro A) was over 200 µM and the EC50 (MCMV) was over 0.8 µM. The EC50 (Polio Virus Sb-1) was 6 µM, the EC50 (Influenza B) was over 200 µM and the EC50 (CVB-2) was 11 µM. For the same compound, the CC50 [14] was 2.4 µM, the EC50 (Adenovirus type 1) was over 200 µM and the “in vitro stability, deamination to mUrd” value [15] was “remained essentially unchanged”. For the same compound, the “L-Lactate (% of Control)” value (Huh7 cells; 10 μM) was 98.0 ± 12.3 % of Control, the “L-Lactate (% of Control)” value (Huh7 cells; 50 μM) was 97.1 ± 10.1 % of Control and the EC50 (DENV-2) was 59 to 95 µM. It also gave an EC50 (VZV) of over 20 µg/mL, an EC50 (Sb-1; read-out: EC50 Sb-1) of 6 µM and an EC50 (Sb-1; read-out: Sb-1) of 11.5 µM. For the same compound, the EC50 (Parainfluenza type 3) was over 200 µM, the EC50 (REO-1) was 13 µM and the “effect on the level of the rig S15 cellular mRNA control” value (BVDV RNA) was “No effect”. For the same compound, the “maximum viral RNA reduction” value (BVDV RNA; highest inhibitor concentration tested (125 μM)) was 4 log10, the “mtDNA/nuclear DNA (% of Control)” value (HepG2 cells [16]; 10 μM, 6 day treatment) was 117.3 ± 17.5 % of Control and the “mtDNA/nuclear DNA (% of Control)” value (HepG2 cells [16]; 10 μM, 14 day treatment) was 99.7 ± 23.9 % of Control. For the same compound, the “mtDNA/nuclear DNA (% of Control)” value (HepG2 cells [16]; 50 μM, 6 day treatment) was 158.2 ± 17.5 % of Control and the “mtDNA/nuclear DNA (% of Control)” value (HepG2 cells [16]; 50 μM, 14 day treatment) was 83.0 ± 15.5 % of Control.
